Assay results: US10676473B2, “Solid state forms of fused heteroaromatic pyrrolidinones” (TAKEDA PHARMACEUTICAL COMPANY LIMITED, priority 2014, dated 2020)
Converted amounts (≈) assume the structure as drawn. “Also recorded” adds a separate entry of the source. Structures can show the parent of a compound that is named as a salt. Where two headings read alike, the source gives them in different places.

What was measured:
[1] = Solubility of solid forms; type: physicochemical
[2] = Storage at elevated temperature/humidity, form checked by XRPD; type: physicochemical; details: for stability on storage: duration not given; for stability to moisture / humidity: exposure to humidity
[3] = Gravimetric vapour sorption (GVS) isotherm; type: physicochemical; details: for GVS behaviour (dehydration, crystallisation, transformation) / hygroscopicity by GVS: 25° C.; for GVS behaviour (dehydration, crystallisation, transformation): RH as stated in the value; for hygroscopicity by GVS: subjected to humidity (various RH levels); for change in form / XRPD pattern post GVS analysis: XRPD after the isotherm; for GVS mass / total weight change: between 0-90% RH; for water exchanged (GVS): between 0 and 90% RH
Protocol: Sorption isotherms were obtained using a SMS DVS Intrinsic moisture sorption analyser, controlled by DVS Intrinsic Control software v1.0.0.30. The sample temperature was maintained at 25° C. by the instrument controls. The humidity was controlled by mixing streams of dry and wet nitrogen, with a total flow rate of 200 ml/min The relative humidity was measured by a calibrated Rotronic probe (dynamic range of 1.0-100% RH), located near the sample. The weight change, (mass relaxation) of the sample as a function of % RH was constantly monitored by the microbalance (accuracy ±0.005 mg).
Typically 5-20 mg of sample was placed in a tared mesh stainless steel basket under ambient conditions. The sample was loaded and unloaded at 40% RH and 25° C. (typical room conditions). A moisture sorption isotherm was performed as outlined below (2 scans giving 1 complete cycle). The standard isotherm was performed at 25° C. at 10% RH intervals over a 0-90% RH range. Data analysis was undertaken in Microsoft Excel using DVS Analysis Suite v6.0.
The sample was recovered after completion of the isotherm and re-analyzed by XRPD.

[4] = system: advanced solid tumors/lymphoma; assay: Response assessment (RECIST / IWG criteria) in patients; type: in vivo, human
Protocol: (§1) Patients aged ≥18 yrs with advanced solid tumors/lymphoma whose disease failed standard therapies received oral Compound 1 citrate (Form 1) daily (QD, 60-120 mg) in 28 day cycles. To determine the maximum tolerated dose, dose escalation proceeded via modified titration design based on dose limiting toxicity or any drug-related grade ≥2 adverse event (AE) during cycle 1. Blood samples for plasma pharmacokinetic assessments were collected pre-dose and post-dose on day 1 and day 15 of cycle 1. Response assessments per RECIST for solid tumors and per IWG criteria for lymphoma were performed between day 22 and day 29 (pre-dose) of cycle 2, 4 and 6, and every 3 cycles thereafter.

[5] = Safety and dose limiting toxicity in the dose escalation study in patients; type: in vivo, human
Protocol: as §1

[6] = Plasma pharmacokinetics in patients, oral once daily dosing; details: human, in vivo
Protocol: as §1

[7] = DLBCL, 60 mg QD, after 2 cycles

For `Cn1cc(-c2nc(N[C@@H]3CCCC[C@@H]3N)c(F)c3c2C(=O)NC3)cn1` [Form 16], the solubility ([1]; water, pH 9.27, pH 9.27, read-out: aqueous solubility) was 130 µg/mL (≈ 377 µM), the stability on storage ([2]; 25° C./97% RH) was “No changes in the XRPD pattern were observed” and the stability on storage ([2]; 40° C./75% RH) was “No changes in the XRPD pattern were observed”. The “GVS behaviour (dehydration, crystallisation, transformation)” value (shortened to “GVS behaviour”) [3] was “dehydration below 30% RH; also recorded: stable at and above 30% RH at 25 °C and desolvated below 30% RH”.

In the case of `Cn1cc(-c2nc(N[C@@H]3CCCC[C@@H]3N)c(F)c3c2C(=O)NC3)cn1` [Compound 1 citrate, 6-(((1R,2S)-2-aminocyclohexyl)amino)-7-fluoro-4-(1-methyl-1H-pyrazol-4-yl)-1H-pyrrolo[3,4-c]pyridin-3(2H)-one citrate], the “hygroscopicity by GVS” value ([3]; citrate) is reported as “non hygroscopic”.

For `Cn1cc(-c2nc(N[C@@H]3CCCC[C@@H]3N)c(F)c3c2C(=O)NC3)cn1` [Form 14], the stability on storage ([2]; 25° C./97% RH) was “stable”, the stability on storage ([2]; 40° C./75% RH) was “stable” and the “change in form / XRPD pattern post GVS analysis” value [3] was “no change in the XRPD pattern was noted”. The “GVS mass / total weight change” value [3] was 1.5% and the “water exchanged (GVS)” value [3] was 0.25 eq.

In the case of `Cn1cc(-c2nc(N[C@@H]3CCCC[C@@H]3N)c(F)c3c2C(=O)NC3)cn1` [Form 4], the “change in form during storage” value ([2]; 25° C./97% RH for 10 days) is reported as “did not change form”, the “change in form during storage” value ([2]; 40° C./75% RH for 10 days) is reported as “did not change form” and the “change in form during storage” value ([2]; 40° C./97% RH for 10 days) is reported as “did not change form”. The “stability to moisture / humidity” value [2] was “stable to moisture” and the “hygroscopicity by GVS” value [3] was “not hygroscopic; also recorded: non-hygroscopic”.

With `Cn1cc(-c2nc(N[C@@H]3CCCC[C@@H]3N)c(F)c3c2C(=O)NC3)cn1` [Form 7] the “stability to moisture / humidity” value [2] was “unstable to humidity and converted back to a hydrated form (Form 9)” and the GVS water uptake ([3]; RH range not given) was 10.5%.

For `Cn1cc(-c2nc(N[C@@H]3CCCC[C@@H]3N)c(F)c3c2C(=O)NC3)cn1` [Form 17], the solubility ([1]; water, pH 9.33, pH 9.33, read-out: aqueous solubility) was 180 µg/mL (≈ 523 µM), the stability on storage ([2]; 25° C./97% RH) was “stable” and the stability on storage ([2]; 40° C./75% RH) was “stable”. For the same compound, the “change in form / XRPD pattern post GVS analysis” value [3] was “no change in the XRPD pattern was noted” and the “water exchanged (GVS)” value [3] was 0.3 eq.

In the case of `Cn1cc(-c2nc(N[C@@H]3CCCC[C@@H]3N)c(F)c3c2C(=O)NC3)cn1` [Form 15], the aqueous solubility ([1]; pH 9.41) is reported as 710 µg/mL (≈ 2060 µM), the stability on storage ([2]; 25° C./97% RH) is reported as “stable” and the stability on storage ([2]; 40° C./75% RH) is reported as “stable”. The “change in form / XRPD pattern post GVS analysis” value [3] was “no change in the XRPD pattern was noted”, the “GVS mass / total weight change” value [3] was 2.0% and the “water exchanged (GVS)” value [3] was 0.4 eq.

For `Cn1cc(-c2nc(N[C@@H]3CCCC[C@@H]3N)c(F)c3c2C(=O)NC3)cn1` [Form 13], the solubility ([1]; water, pH 9.05, pH 9.05, read-out: aqueous solubility) was 190 µg/mL (≈ 552 µM), the stability on storage ([2]; 25° C./97% RH) was “stable” and the stability on storage ([2]; 40° C./75% RH) was “stable”. For the same compound, the “hygroscopicity by GVS” value [3] was “not hygroscopic”, the “change in form / XRPD pattern post GVS analysis” value [3] was “no transformation to hydrates was observed” and the “GVS mass / total weight change” value [3] was “less than 0.6%”.

For `Cn1cc(-c2nc(N[C@@H]3CCCC[C@@H]3N)c(F)c3c2C(=O)NC3)cn1` [Form 2], the “GVS behaviour” value [3] was “adsorbs moisture in the range of 40-80% relative humidity (RH) and undergoes a crystallization event above 80% RH; also recorded: undergoes a crystallisation event above 80% RH”, the “change in form / XRPD pattern post GVS analysis” value [3] was “transformation to Form 1” and the “GVS weight loss accompanying crystallization” value ([3]; between 80% and 90% RH) was 7%. The “moisture adsorbed (GVS)” value ([3]; range of 40-80% RH) was 9 % w/w.

For `Cn1cc(-c2nc(N[C@@H]3CCCC[C@@H]3N)c(F)c3c2C(=O)NC3)cn1` [Form 12], the solubility ([1]; water, pH 9.41, pH 9.41, read-out: aqueous solubility) was 580 µg/mL (≈ 1680 µM), the stability on storage ([2]; 25° C./97% RH) was “not stable” and the stability on storage ([2]; 40° C./75% RH) was “No obvious stability issues were noted”. For the same compound, the “GVS behaviour” value [3] was “Hysterisis was observed between 40 and 60% RH; also recorded: possibility of the transformation of Form 12 to a hydrated form” and the “GVS mass / total weight change” value [3] was “about 6%”.

In the case of `Cn1cc(-c2nc(N[C@@H]3CCCC[C@@H]3N)c(F)c3c2C(=O)NC3)cn1` [Form 3, 6-(((1R,2S)-2-aminocyclohexyl)amino)-7-fluoro-4-(1-methyl-1H-pyrazol-4-yl)-1H-pyrrolo[3,4-c]pyridin-3(2H)-one hydrochloride dihydrate], the “change in form after storage” value ([2]; 25° C./97% RH for 1 week) is reported as “No change in form was observed”, the “change in form after storage” value ([2]; 40° C./75% RH for 1 week) is reported as “No change in form was observed” and the “GVS behaviour” value ([3]; hydrochloride dihydrate) is reported as “subject to dehydration below 20% RH”. The “change in form / XRPD pattern post GVS analysis” value ([3]; hydrochloride dihydrate) was “No change in form was observed”.

For `Cn1cc(-c2nc(N[C@@H]3CCCC[C@@H]3N)c(F)c3c2C(=O)NC3)cn1` [Form 8], the “GVS behaviour” value [3] was “minimal weight variation between 10 and 90% RH”.

With `Cn1cc(-c2nc(N[C@@H]3CCCC[C@@H]3N)c(F)c3c2C(=O)NC3)cn1` [Compound 1 free base, 6-((1R,2S)-2-aminocyclohexylamino)-7-fluoro-4-(1-methyl-1H-pyrazol-4-yl)-1H-pyrrolo[3,4-c]pyridine-3(2H)-one] the stability on storage ([2]; 40° C./75% RH) was “the methanol solvate desolvated, however, the anhydrous form was found to be stable” and the “GVS behaviour” value [3] was “the methanol solvate desolvated, however, the anhydrous form was found to be stable”.

With `Cn1cc(-c2nc(N[C@@H]3CCCC[C@@H]3N)c(F)c3c2C(=O)NC3)cn1` [Form 5] the solubility ([1]; medium not given, read-out: solubility) was 11000 µg/mL (≈ 31900 µM), the “change in form during storage” value ([2]; 40° C./97% RH for 10 days) was “did not change form” and the “stability to moisture / humidity” value [2] was “stable to moisture”. For the same compound, the “hygroscopicity by GVS” value [3] was “not hygroscopic” and the “change in form / XRPD pattern post GVS analysis” value [3] was “did not change form”.

In the case of `Cn1cc(-c2nc(N[C@@H]3CCCC[C@@H]3N)c(F)c3c2C(=O)NC3)cn1` [Form 1], the “DLBCL patients showing signs of response” value ([4]; 60 mg QD, after 2 cycles, 5 response-evaluable patients (4 DLBCL)) is reported as 2 patients, the “patients with partial response” value [4, 7] is reported as 1 and the “tumor reduction in 1 patient” value [4, 7] is reported as 25%. For the same compound, the “patients achieving partial response” value ([4]; DLBCL, 80 mg, after 1 cycle, post data cut-off) was 1 patient, the “patients died on study (deaths not related to study drug)” value ([5]; 60 mg QD) was 3 and the “patients died on study (deaths not related to study drug)” value ([5]; 120 mg QD) was 1 patient. The “patients discontinued due to adverse events” value ([5]; human, in vivo) was 3 patients, the “patients died on study (deaths not related to study drug)” value ([5]; overall, 15 patients) was 4 patients and the mean accumulation ([6]; 15 days) was 2.7 fold. The “coefficient of variation for dl 5 AUCtau (variability in steady-state exposures)” value ([6]; po, 120 mg) was 47%, the Tmax ([6]; plasma, 11 patients at 60 and 120 mg oral QD, read-out: median Tmax) was 2 h and the “change in form after storage” value ([2]; 25° C./97% RH for 1 week) was “No change in form was observed”. For the same compound, the “change in form after storage” value ([2]; 40° C./75% RH for 1 week) was “No change in form was observed”, the “hygroscopicity by GVS” value [3] was “not hygroscopic” and the GVS variation ([3]; RH range not printed at the place) was “less than 0.3 % w/w”. For the same compound, the “change in form / XRPD pattern post GVS analysis” value [3] was “No change in form was observed” and the “GVS mass / total weight change” value [3] was “less than 0.3%”.

For `Cn1cc(-c2nc(N[C@@H]3CCCC[C@@H]3N)c(F)c3c2C(=O)NC3)cn1` [Form 6], the “stability to moisture / humidity” value [2] was “seems to undergo a phase transformation, possibly leading to Form 9”, the “GVS behaviour” value [3] was “adsorbs moisture and undergoes a crystallisation event above 70% RH” and the GVS water uptake ([3]; between 40-60% RH) was 5 % w/w. The GVS weight loss ([3]; between 70-90% RH) was 3%.
